Laboratory results published in PubChem BioAssay AID624008 (Vanderbilt Specialized Chemistry Center, 2012).
Activity calls are given as the source filed them. How the calls were made is not given here.

What follows are molecules tested against Phospholipase D1 (Homo sapiens) + Phospholipase D1 (Homo sapiens) (UniProt Q13393+Q13393) (assay: cellular PLD1 inhibitors, Calu-1 cells, Lib32, assay 1A (AID 624008)). Conditions: percent of control, stronger effect = lower value, concentration not given here.
Phospholipase D1 (Homo sapiens) + Phospholipase D1 (Homo sapiens), sequence (Q13393 whole entry, looked up): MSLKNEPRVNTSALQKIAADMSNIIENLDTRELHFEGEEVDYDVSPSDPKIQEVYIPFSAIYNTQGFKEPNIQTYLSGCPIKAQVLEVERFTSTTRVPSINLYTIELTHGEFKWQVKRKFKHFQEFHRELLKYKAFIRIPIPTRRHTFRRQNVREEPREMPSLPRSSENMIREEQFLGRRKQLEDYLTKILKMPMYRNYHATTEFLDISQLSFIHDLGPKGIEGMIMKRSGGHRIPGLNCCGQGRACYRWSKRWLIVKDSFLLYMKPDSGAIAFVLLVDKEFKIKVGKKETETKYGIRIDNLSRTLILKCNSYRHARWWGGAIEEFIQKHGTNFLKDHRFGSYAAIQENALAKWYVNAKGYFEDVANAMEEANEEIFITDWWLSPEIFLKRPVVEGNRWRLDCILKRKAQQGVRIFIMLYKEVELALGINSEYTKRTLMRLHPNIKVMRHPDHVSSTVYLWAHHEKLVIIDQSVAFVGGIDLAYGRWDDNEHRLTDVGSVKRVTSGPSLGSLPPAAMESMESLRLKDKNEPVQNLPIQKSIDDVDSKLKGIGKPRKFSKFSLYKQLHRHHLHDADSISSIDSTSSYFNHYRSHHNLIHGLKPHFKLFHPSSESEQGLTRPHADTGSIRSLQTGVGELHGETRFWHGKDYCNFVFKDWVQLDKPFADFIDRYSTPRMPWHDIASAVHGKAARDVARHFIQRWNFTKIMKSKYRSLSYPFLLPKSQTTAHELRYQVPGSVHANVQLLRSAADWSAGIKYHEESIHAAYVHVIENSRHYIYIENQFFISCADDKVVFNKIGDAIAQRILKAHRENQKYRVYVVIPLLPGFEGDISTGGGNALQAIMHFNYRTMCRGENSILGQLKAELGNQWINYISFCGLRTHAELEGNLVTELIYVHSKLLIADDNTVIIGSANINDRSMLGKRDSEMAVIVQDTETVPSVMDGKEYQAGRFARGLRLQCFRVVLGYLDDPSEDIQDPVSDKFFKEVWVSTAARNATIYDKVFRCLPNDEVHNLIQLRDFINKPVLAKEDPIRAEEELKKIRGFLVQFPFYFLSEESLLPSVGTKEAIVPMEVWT
Phospholipase D1 (Homo sapiens) + Phospholipase D1 (Homo sapiens), sequence (Q13393 whole entry, looked up): as above

| Structure (SMILES) | remaining activity |
| --- | --- |
| C[C@@H](CN1CCC2(CC1)C(=O)NCN2c1cccc(F)c1)NC(=O)c1cccc([N+](=O)[O-])c1 | 28.6% |
| C[C@@H](CN1CCC2(CC1)C(=O)NCN2c1cccc(F)c1)NC(=O)c1ccc(Cl)cc1Cl | 71.6% |
| C[C@@H](CN1CCC2(CC1)C(=O)NCN2c1cccc(F)c1)NC(=O)Cc1ccc(F)cc1 | 102% (inactive) |
| O=C(NCCN1CCC2(CC1)C(=O)NCN2c1cccc(F)c1)c1cccc2c1OCO2 | 102% (inactive) |
| C[C@@H](CN1CCC2(CC1)C(=O)NCN2c1cccc(F)c1)NC(=O)c1c(F)ccc(F)c1Cl | 81.7% (inactive) |
| C[C@@H](CN1CCC2(CC1)C(=O)NCN2c1cccc(F)c1)NC(=O)c1ccccc1I | 91.6% (inactive) |
| O=C(Cc1ccc(F)cc1)NCCN1CCC2(CC1)C(=O)NCN2c1cccc(F)c1 | 99.3% (inactive) |
| C[C@@H](CN1CCC2(CC1)C(=O)NCN2c1cccc(F)c1)NC(=O)c1ccc(Br)cc1 | 10.2% |
| C[C@@H](CN1CCC2(CC1)C(=O)NCN2c1cccc(F)c1)NC(=O)c1cccc(C(F)(F)F)c1 | 82.3% (inactive) |
| O=C(NCCN1CCC2(CC1)C(=O)NCN2c1cccc(F)c1)c1ccc(F)cc1F | 99% (inactive) |
| O=C(NCCN1CCC2(CC1)C(=O)NCN2c1cccc(F)c1)c1ccc(Cl)cc1Cl | 107% (inactive) |
| O=C(NCCN1CCC2(CC1)C(=O)NCN2c1cccc(F)c1)c1ccccc1I | 99.7% (inactive) |
| COc1cc(C(=O)NCCN2CCC3(CC2)C(=O)NCN3c2cccc(F)c2)cc(OC)c1OC | 113% (inactive) |
| C[C@@H](CN1CCC2(CC1)C(=O)NCN2c1cccc(F)c1)NC(=O)c1c(F)cccc1F | 75.1% |
| O=C(NCCN1CCC2(CC1)C(=O)NCN2c1cccc(F)c1)c1cccc(C(F)(F)F)c1 | 94.8% (inactive) |
| O=C(NCCN1CCC2(CC1)C(=O)NCN2c1cccc(F)c1)c1ccc(F)cc1 | 102% (inactive) |
| C[C@@H](CN1CCC2(CC1)C(=O)NCN2c1cccc(F)c1)NC(=O)c1ccc(F)cc1F | 28.8% |
| O=C(NCCN1CCC2(CC1)C(=O)NCN2c1cccc(F)c1)c1ccccn1 | 93.5% (inactive) |
| C[C@@H](CN1CCC2(CC1)C(=O)NCN2c1cccc(F)c1)NC(=O)c1cccc(F)c1 | 45.7% |
| C[C@@H](CN1CCC2(CC1)C(=O)NCN2c1cccc(F)c1)NC(=O)c1ccc(F)c(F)c1 | 10.1% |
| C[C@@H](CN1CCC2(CC1)C(=O)NCN2c1cccc(F)c1)NC(=O)c1ccc(F)cc1 | 24% |
| O=C(NCCN1CCC2(CC1)C(=O)NCN2c1cccc(F)c1)c1cccc2ccccc12 | 102% (inactive) |
| O=C(NCCN1CCC2(CC1)C(=O)NCN2c1cccc(F)c1)c1ccc(Br)cc1 | 98.5% (inactive) |
| O=C(NCCN1CCC2(CC1)C(=O)NCN2c1cccc(F)c1)c1c(F)ccc(F)c1Cl | 106% (inactive) |
| COc1cc(C(=O)N[C@@H](C)CN2CCC3(CC2)C(=O)NCN3c2cccc(F)c2)cc(OC)c1OC | 9.86% |
| C[C@@H](CN1CCC2(CC1)C(=O)NCN2c1cccc(F)c1)NC(=O)c1cccc2ccccc12 | 64.5% |
| O=C(NCCN1CCC2(CC1)C(=O)NCN2c1cccc(F)c1)c1cccc([N+](=O)[O-])c1 | 101% (inactive) |
| O=C(c1ccc(F)cc1)N(CCN1CCC2(CC1)C(=O)NCN2c1cccc(F)c1)C(=O)c1ccc(F)cc1 | 109% (inactive) |
